# Laboratory results taken from patent US20120129787A1, “Modified oligopeptides with anticancer properties and methods of obtaining them” (priority 2010, published 2012).
# What was measured:
# [1] = test system: benzidine skin sarcoma; test: Anti-cancer activity on benzidine skin sarcoma in Barbados mice; assay type: in vivo; settings: mice with benzidine sarcoma
# Description: Study of the Anti-Cancer Activity of Anticanum on Benzidine Sarcoma. Before applying it to the silica gel, 7 ml of a solution of 2% benzidine and 0.9% sodium chloride was added until an opalescent suspension was formed (1 g silica gel for 5 ml NaCl solution). Twenty-five Barbados mice of both sexes with a weight of 18-20 g that were kept on a vivarium diet were administered benzidine and phorbol acetate immobilized on silica gel subcutaneously near the neck every three days. After two weeks, 18 animals had developed tumors of different sizes in the form of a small bump on the neck near the silica gel granulomas. Each group of animals was administered the corresponding compound parenterally at a dose of 100 mcg/kg weight twice a day for two weeks, beginning at 16 days after administration of the carcinogen.
# [2] = test system: HeLa cells; test: Effect of MPs on HeLa cells: number of surviving cells versus concentration; assay type: cell-based
# Description: In establishing the minimum concentration of MPs that will slow the growth of cells, a comparison was made between the number of surviving cells and the concentration of MPs in the solution.
smiles,measurement,setting,value
CC(=O)O[C@@]12CO[C@@H]1C[C@H](O)[C@@]1(C)C(=O)[C@H](O)C3=C(C)[C@@H](OC(=O)[C@H](O)[C@@H](NC(=O)OC(C)(C)C)c4ccccc4)C[C@@](O)([C@@H](OC(=O)c4ccccc4)[C@H]21)C3(C)C [Taxotere],"Weight of Animal, Before Treatment",[1],27 ± 2 g
same,"Number of live cells after incubation, %",[2]; dose 20 mcg/ml,93%
same,"Number of live cells after incubation, %",[2]; dose 40 mcg/ml,91%
same,"Number of live cells after incubation, %",[2]; dose 60 mcg/ml,0.12%
same,"Number of live cells after incubation, %",[2]; dose 100 mcg/ml,92%
same,"Number of live cells after incubation, %",[2]; dose 120 mcg/ml,101%
